In patent US12319709B2, “Diaryl trehalose compounds and uses thereof” (THE UNIVERSITY OF MONTANA, priority 2018, dated 2025):

Legend:
RAW264.7 cells = assay: Cytokine (TNFα) response of mouse macrophage cell line; Table 2 'Murine'; assay type: cell-based; design: Maximum cytokine response Murine: unit not given here; conditions: NR = no response
Protocol: Compounds were also tested in a mouse macrophage cell line (FIG. 4B). RAW264.7 cells were subjected to increasing concentrations of the compounds and assessed for production of the cytokine TNFα.

[1] = system: peripheral blood mononuclear cells (PBMCs); assay: IL-6 induction in fresh human PBMCs; assay type: cell-based; conditions: for Maximum cytokine response h-IL-6 / Minimal Effective Concentration h-IL-6: human IL-6, NR = no response
Protocol: Tumor necrosis factor alpha (TNFα) and IL-6 production in peripheral blood mononuclear cells (PBMCs) was measured after exposure to various concentrations of the DAT compounds synthesized as shown above. Initial studies focused on two different methods of delivery of the DAT compounds to PBMC cultures. In the first delivery method, the indicated derivative compound was dissolved in isopropanol, serially diluted, and then dried to the bottom of a tissue culture plate. In the second delivery method, the indicated derivative compound was dissolved in DMSO and serially diluted into tissue culture media. In each method, PBMCs were added to the compounds and incubated at 37° C. TNFα (FIG. 1A) and IL-6 (FIG. 1B) were measured after 18-24 hours after treatment by ELISA assay.
The isolated PBMCs were exposed to increasing concentrations of the indicated compounds resuspended in DMSO and serially diluted in media. IL-6 levels were determined from supernatants eighteen hours after treatment (FIG. 3).

| Structure (SMILES) | Maximum cytokine response Murine (RAW264.7 cells; listed as 1014) | Minimal Effective Concentration Murine (RAW264.7 cells; listed as 1014) [µM] | IL-6 production / activity in fresh PBMCs from multiple donors (in words) ([1]; compounds in DMSO serially diluted in media, supernatants 18 h after treatment, listed as 1014) | Maximum cytokine response Murine (RAW264.7 cells) | Minimal Effective Concentration Murine (RAW264.7 cells) [µM] | Maximum cytokine response h-IL-6 [1] [OD] | Minimal Effective Concentration h-IL-6 [1] [µM] |
| --- | --- | --- | --- | --- | --- | --- | --- |
| COc1cc(OC)cc(C(=O)OC[C@H]2O[C@H](O[C@H]3O[C@H](COC(=O)c4cc(OC)cc(OC)c4)[C@@H](O)[C@H](O)[C@H]3O)[C@H](O)[C@@H](O)[C@@H]2O)c1 [UM1014] | 3.3 | 37 | inactive |  |  |  |  |
| Cc1cc(C)cc(C(=O)OCC2OC(OC3OC(COC(=O)c4cc(C)cc(C)c4)C(O)C(O)C3O)C(O)C(O)C2O)c1 (stereo not drawn) [UM1016] |  |  |  | 3 | 4.1 | 1.5 | 1000 |
| COc1cccc(/C=C/C(=O)OC[C@H]2O[C@H](O[C@H]3O[C@H](COC(=O)/C=C/c4cccc(OC)c4OC)[C@@H](O)[C@H](O)[C@H]3O)[C@H](O)[C@@H](O)[C@@H]2O)c1OC [UM1018] |  |  |  | 3.5 | 37 | 1.3 | 333 |
| Cc1ccccc1-c1cccc(C(=O)OC[C@H]2O[C@H](O[C@H]3O[C@H](COC(=O)c4cccc(-c5ccccc5C)c4)[C@@H](O)[C@H](O)[C@H]3O)[C@H](O)[C@@H](O)[C@@H]2O)c1 [UM1041] |  |  |  | 1.2 | 33 | 1.3 | 5 |
| O=C(OC[C@H]1O[C@H](O[C@H]2O[C@H](COC(=O)c3ccccc3C(F)(F)F)[C@@H](O)[C@H](O)[C@H]2O)[C@H](O)[C@@H](O)[C@@H]1O)c1ccccc1C(F)(F)F [UM1042] |  |  |  | 0.9 | 11 | 2 | 50 |
| CC(C)(C)c1cc(C(C)(C)C)c(O)c(C(=O)OC[C@H]2O[C@H](O[C@H]3O[C@H](COC(=O)c4c(O)c(C(C)(C)C)cc(C(C)(C)C)c4O)[C@@H](O)[C@H](O)[C@H]3O)[C@H](O)[C@@H](O)[C@@H]2O)c1O [UM1046] |  |  |  | 0.8 | 0.4 | 3 | 20 |
| CC(C)(C)c1cc(C(=O)OC[C@H]2O[C@H](O[C@H]3O[C@H](COC(=O)c4cc(C(C)(C)C)cc(C(C)(C)C)c4)[C@@H](O)[C@H](O)[C@H]3O)[C@H](O)[C@@H](O)[C@@H]2O)cc(C(C)(C)C)c1 [UM1047] |  |  |  | 0.9 | 1.2 | 1 | 11 |
| CCOc1cc(C(=O)OCC2OC(OC3OC(COC(=O)c4cc(OCC)c(OCC)c(OCC)c4)C(O)C(O)C3O)C(O)C(O)C2O)cc(OCC)c1OCC (stereo not drawn) [UM1049] |  |  |  | 1.3 | 0.13 | 3.3 | 2 |
| CCCOc1cc(OCCC)cc(C(=O)OC[C@H]2O[C@H](O[C@H]3O[C@H](COC(=O)c4cc(OCCC)cc(OCCC)c4)[C@@H](O)[C@H](O)[C@H]3O)[C@H](O)[C@@H](O)[C@@H]2O)c1 [UM1050] |  |  |  |  |  | 3.3 | 9 |
| CCCCOc1cc(OCCCC)cc(C(=O)OC[C@H]2O[C@H](O[C@H]3O[C@H](COC(=O)c4cc(OCCCC)cc(OCCCC)c4)[C@@H](O)[C@H](O)[C@H]3O)[C@H](O)[C@@H](O)[C@@H]2O)c1 [UM1051] |  |  |  | 1.3 | 0.13 | 2.5 | 6 |
| CCCCCOc1cc(OCCCCC)cc(C(=O)OC[C@H]2O[C@H](O[C@H]3O[C@H](COC(=O)c4cc(OCCCCC)cc(OCCCCC)c4)[C@@H](O)[C@H](O)[C@H]3O)[C@H](O)[C@@H](O)[C@@H]2O)c1 [UM1052] |  |  |  | 1.3 | 0.13 | 3.3 | 0.08 |
| O=C(OC[C@H]1O[C@H](O[C@H]2O[C@H](COC(=O)c3cccc(C(F)(F)F)c3O)[C@@H](O)[C@H](O)[C@H]2O)[C@H](O)[C@@H](O)[C@@H]1O)c1cccc(C(F)(F)F)c1O [UM1053] |  |  |  |  |  | 0.5 | 100 |
| O=C(OC[C@H]1O[C@H](O[C@H]2O[C@H](COC(=O)c3cc(C(F)(F)F)cc(C(F)(F)F)c3)[C@@H](O)[C@H](O)[C@H]2O)[C@H](O)[C@@H](O)[C@@H]1O)c1cc(C(F)(F)F)cc(C(F)(F)F)c1 [UM1054] |  |  |  |  |  | 1.5 | 100 |
| O=C(OC[C@H]1O[C@H](O[C@H]2O[C@H](COC(=O)c3cccc(-c4ccccc4O)c3)[C@@H](O)[C@H](O)[C@H]2O)[C@H](O)[C@@H](O)[C@@H]1O)c1cccc(-c2ccccc2O)c1 [UM1060] |  |  |  |  |  | 3.3 | 33.3 |
| O=C(OC[C@H]1O[C@H](O[C@H]2O[C@H](COC(=O)c3ccc(-c4ccccc4)cc3O)[C@@H](O)[C@H](O)[C@H]2O)[C@H](O)[C@@H](O)[C@@H]1O)c1ccc(-c2ccccc2)cc1O [UM1062] |  |  |  | 3 | 100 | 3 | 100 |
| O=C(OC[C@H]1O[C@H](O[C@H]2O[C@H](COC(=O)c3c(C(F)(F)F)cccc3C(F)(F)F)[C@@H](O)[C@H](O)[C@H]2O)[C@H](O)[C@@H](O)[C@@H]1O)c1c(C(F)(F)F)cccc1C(F)(F)F [UM1065] |  |  |  | 2.5 | 100 | 3 | 3.7 |
| O=C(OC[C@H]1O[C@H](O[C@H]2O[C@H](COC(=O)c3cc(C(F)(F)F)ccc3C(F)(F)F)[C@@H](O)[C@H](O)[C@H]2O)[C@H](O)[C@@H](O)[C@@H]1O)c1cc(C(F)(F)F)ccc1C(F)(F)F [UM1066] |  |  |  | 3 | 100 | 2.6 | 33.3 |
| COc1ccc(-c2ccc(C(=O)OC[C@H]3O[C@H](O[C@H]4O[C@H](COC(=O)c5ccc(-c6ccc(OC)cc6)cc5)[C@@H](O)[C@H](O)[C@H]4O)[C@H](O)[C@@H](O)[C@@H]3O)cc2)cc1 [UM1070] |  |  |  | 2 | 100 | 3 | 33.3 |
| Cc1cccc(Nc2ccccc2C(=O)OC[C@H]2O[C@H](O[C@H]3O[C@H](COC(=O)c4ccccc4Nc4cccc(C)c4C)[C@@H](O)[C@H](O)[C@H]3O)[C@H](O)[C@@H](O)[C@@H]2O)c1C [UM1074] |  |  |  | 2 | 1.2 | 3.5 | 33.3 |
| O=C(OC[C@H]1O[C@H](O[C@H]2O[C@H](COC(=O)c3ccccc3Nc3ccccc3)[C@@H](O)[C@H](O)[C@H]2O)[C@H](O)[C@@H](O)[C@@H]1O)c1ccccc1Nc1ccccc1 [UM1075] |  |  |  | 2.2 | 3.7 | 3.5 | 20 |
| COc1cc(C(=O)OC[C@H]2O[C@H](O[C@H]3O[C@H](COC(=O)c4cc(OC)c(Br)c(OC)c4)[C@@H](O)[C@H](O)[C@H]3O)[C@H](O)[C@@H](O)[C@@H]2O)cc(OC)c1Br [UM1077] |  |  |  |  |  | 2.5 | 100 |
| O=C(OC[C@H]1O[C@H](O[C@H]2O[C@H](COC(=O)c3cc([N+](=O)[O-])cc([N+](=O)[O-])c3)[C@@H](O)[C@H](O)[C@H]2O)[C@H](O)[C@@H](O)[C@@H]1O)c1cc([N+](=O)[O-])cc([N+](=O)[O-])c1 [UM1080] |  |  |  | 1 | 33 | 2 | 100 |
| COc1cc(Br)c(CC(=O)OC[C@H]2O[C@H](O[C@H]3O[C@H](COC(=O)Cc4cc(OC)c(OC)cc4Br)[C@@H](O)[C@H](O)[C@H]3O)[C@H](O)[C@@H](O)[C@@H]2O)cc1OC [UM1082] |  |  |  | 1.7 | 33 | 0.5 | 100 |
| CCOc1cc(C(C)(C)C)ccc1C(=O)OC[C@H]1O[C@H](O[C@H]2O[C@H](COC(=O)c3ccc(C(C)(C)C)cc3OCC)[C@@H](O)[C@H](O)[C@H]2O)[C@H](O)[C@@H](O)[C@@H]1O [UM1132] |  |  |  |  |  | 2.6 | 100 |
| CCOc1cc(C(=O)OC[C@H]2O[C@H](O[C@H]3O[C@H](COC(=O)c4ccc(OCc5ccccc5)c(OCC)c4)[C@@H](O)[C@H](O)[C@H]3O)[C@H](O)[C@@H](O)[C@@H]2O)ccc1OCc1ccccc1 [UM1134] |  |  |  |  |  | 0.5 | 100 |
| Cc1ccc(C)c(C(C)(C)CC(=O)OC[C@H]2O[C@H](O[C@H]3O[C@H](COC(=O)CC(C)(C)c4cc(C)ccc4C)[C@@H](O)[C@H](O)[C@H]3O)[C@H](O)[C@@H](O)[C@@H]2O)c1 [UM1137] |  |  |  |  |  | 1 | 100 |
